According to ChEMBL document CHEMBL1201862, “PubChem BioAssay data set” (2004):
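Cells were grown in 96-well plates and exposed to each compound for 48 hours at five concentrations; endpoints were interpolated linearly between bracketing concentrations, or set to the highest concentration if not reached. GI50 is the concentration that inhibits growth by half.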 The source made the active and inactive calls. No stated cut-off is given here; in the data, active = GI50 up to about 1.1 µM and inactive = higher.

How the values were obtained:
Experiment in all cases: inhibition of tumour cell growth, NCI panel, 48 h
OVCAR-3 = test system: OVCAR-3
SW-620 = test system: SW-620
MCF7 = test system: MCF7
SNB-19 = test system: SNB-19
SK-OV-3 = test system: SK-OV-3
HT-29 = test system: HT-29
NCI/ADR-RES = test system: NCI/ADR-RES
BT-549 = test system: BT-549
NCI-H226 = test system: NCI-H226
SK-MEL-5 = test system: SK-MEL-5
M14 = test system: M14
DU-145 = test system: DU-145
HCT-15 = test system: HCT-15
SN12C = test system: SN12C
T47D = test system: T47D
NCI-H23 = test system: NCI-H23
Hs-578T = test system: Hs-578T
OVCAR-8 = test system: OVCAR-8
IGROV-1 = test system: IGROV-1
SK-MEL-2 = test system: SK-MEL-2
SK-MEL-28 = test system: SK-MEL-28
UACC-62 = test system: UACC-62
U-251 = test system: U-251
SF-539 = test system: SF-539
HCT-116 = test system: HCT-116
RPMI-8226 = test system: RPMI-8226
SF-268 = test system: SF-268
KM12 = test system: KM12
HOP-62 = test system: HOP-62
SF-295 = test system: SF-295
OVCAR-5 = test system: OVCAR-5
786-0 = test system: 786-0
NCI-H460 = test system: NCI-H460
SNB-75 = test system: SNB-75
RXF 393 = test system: RXF 393
MOLT-4 = test system: MOLT-4
A498 = test system: A498
HL-60 = test system: HL-60
SR = test system: SR
TK-10 = test system: TK-10
ACHN = test system: ACHN
COLO 205 = test system: COLO 205
CAKI-1 = test system: CAKI-1
UACC-257 = test system: UACC-257
MDA-MB-231 = test system: MDA-MB-231
A549 = test system: A549
PC-3 = test system: PC-3
HOP-92 = test system: HOP-92
EKVX = test system: EKVX
MDA-MB-435 = test system: MDA-MB-435
UO-31 = test system: UO-31
OVCAR-4 = test system: OVCAR-4
NCI-H522 = test system: NCI-H522
K562 = test system: K562
Malme-3M = test system: Malme-3M
CCRF-CEM = test system: CCRF-CEM
LOX IMVI = test system: LOX IMVI
HCC 2998 = test system: HCC 2998

COc1ccc(CNc2nc(NCc3ccc(OC)cc3)nc(Nc3ccccc3)n2)cc1
GI50 (OVCAR-3): 2.62 µM (inactive)
GI50 (SW-620): 6.46 µM (inactive)
GI50 (MCF7): 5.18 µM (inactive)
GI50 (SNB-19): 17.8 µM (inactive)
GI50 (SK-OV-3): 61.5 µM (inactive)
GI50 (HT-29): 1.93 µM (inactive)
GI50 (NCI/ADR-RES): 9.14 µM (inactive)
GI50 (BT-549): > 100 µM (inactive)
GI50 (NCI-H226): 64.4 µM (inactive)
GI50 (SK-MEL-5): 8.57 µM (inactive)
GI50 (M14): 45.7 µM (inactive)
GI50 (DU-145): 37.7 µM (inactive)
GI50 (HCT-15): 3.39 µM
GI50 (SN12C): 46 µM (inactive)
GI50 (T47D): > 100 µM (inactive)
GI50 (NCI-H23): 12.4 µM (inactive)
GI50 (Hs-578T): 30.1 µM (inactive)
GI50 (OVCAR-8): 20.3 µM (inactive)
GI50 (IGROV-1): 9.71 µM (inactive)
GI50 (SK-MEL-2): > 100 µM (inactive)
GI50 (SK-MEL-28): 4.72 µM (inactive)
GI50 (UACC-62): 4.14 µM (inactive)
GI50 (U-251): 16.7 µM (inactive)
GI50 (SF-539): 14.2 µM (inactive)
GI50 (HCT-116): 11.4 µM (inactive)
GI50 (RPMI-8226): 8.34 µM (inactive)
GI50 (SF-268): > 100 µM (inactive)
GI50 (KM12): 3.37 µM (inactive)
GI50 (HOP-62): > 100 µM (inactive)
GI50 (SF-295): 2.58 µM (inactive)
GI50 (OVCAR-5): > 100 µM (inactive)
GI50 (786-0): 49.7 µM (inactive)
GI50 (NCI-H460): 7.16 µM (inactive)
GI50 (SNB-75): 4.13 µM (inactive)
GI50 (RXF 393): > 100 µM (inactive)
GI50 (MOLT-4): 3.01 µM (inactive)
GI50 (A498): 39.1 µM (inactive)
GI50 (HL-60): 2.44 µM (inactive)
GI50 (SR): 1.11 µM (active)
GI50 (TK-10): 21.5 µM (inactive)
GI50 (ACHN): 13.1 µM (inactive)
GI50 (COLO 205): 4.82 µM (inactive)
GI50 (CAKI-1): 3.35 µM (inactive)
GI50 (UACC-257): 35.1 µM (inactive)
GI50 (MDA-MB-231): 24.1 µM (inactive)
GI50 (A549): 9.86 µM (inactive)
GI50 (PC-3): 5.69 µM (inactive)
GI50 (HOP-92): > 100 µM (inactive)
GI50 (EKVX): > 100 µM (inactive)
GI50 (MDA-MB-435): 2.22 µM (inactive)
GI50 (UO-31): > 100 µM (inactive)
GI50 (OVCAR-4): 8.87 µM (inactive)
GI50 (NCI-H522): 5.73 µM (inactive)
GI50 (K562): 5 µM (inactive)
GI50 (Malme-3M): 6.35 µM (inactive)

COc1ccc(-c2nc(-c3cnccn3)n(C3OC(CO)C(O)C3O)n2)cc1 (centres undefined)
GI50 (OVCAR-3): > 10 µM (inactive)
GI50 (SW-620): > 10 µM (inactive)
GI50 (MCF7): > 10 µM (inactive)
GI50 (SNB-19): > 10 µM (inactive)
GI50 (SK-OV-3): > 10 µM (inactive)
GI50 (HT-29): > 10 µM (inactive)
GI50 (NCI/ADR-RES): > 10 µM (inactive)
GI50 (BT-549): > 10 µM (inactive)
GI50 (NCI-H226): > 10 µM (inactive)
GI50 (M14): > 10 µM (inactive)
GI50 (CCRF-CEM): > 10 µM (inactive)
GI50 (HCT-15): > 10 µM
GI50 (SN12C): > 10 µM (inactive)
GI50 (NCI-H23): > 10 µM (inactive)
GI50 (OVCAR-8): > 10 µM (inactive)
GI50 (SK-MEL-2): > 10 µM (inactive)
GI50 (UACC-62): > 10 µM (inactive)
GI50 (U-251): > 10 µM (inactive)
GI50 (SF-539): > 10 µM (inactive)
GI50 (SF-268): > 10 µM (inactive)
GI50 (KM12): > 10 µM (inactive)
GI50 (SF-295): > 10 µM (inactive)
GI50 (OVCAR-5): > 10 µM (inactive)
GI50 (786-0): > 10 µM (inactive)
GI50 (NCI-H460): > 10 µM (inactive)
GI50 (SNB-75): > 10 µM (inactive)
GI50 (MOLT-4): > 10 µM (inactive)
GI50 (HL-60): > 10 µM (inactive)
GI50 (SR): > 10 µM (inactive)
GI50 (TK-10): > 10 µM (inactive)
GI50 (ACHN): > 10 µM (inactive)
GI50 (UACC-257): > 10 µM (inactive)
GI50 (A549): > 10 µM (inactive)
GI50 (LOX IMVI): > 10 µM (inactive)
GI50 (PC-3): > 10 µM (inactive)
GI50 (HOP-92): > 10 µM (inactive)
GI50 (EKVX): > 10 µM (inactive)
GI50 (MDA-MB-435): > 10 µM (inactive)
GI50 (UO-31): > 10 µM (inactive)
GI50 (OVCAR-4): > 10 µM (inactive)
GI50 (NCI-H522): > 10 µM (inactive)
GI50 (K562): > 10 µM (inactive)
GI50 (Malme-3M): > 10 µM (inactive)
GI50 (HCC 2998): > 10 µM (inactive)
